{"source": "patent US20120115896A1", "about": "“ISOGENIC HUMAN CELL LINES COMPRISING MUTATED CANCER ALLELES AND PROCESS USING THE CELL LINES” (priority 2008, published 2012)", "key": {"[1]": {"tested_on": "hTERT-HME1 cells carrying PIK3CA (E545K and H1047R) KI", "assay": "Drug assay: cell viability by ATP content (96 h) and Hoechst/propidium iodide staining, KI versus parental cells; ΔKI pharmarray analysis", "conditions": "hTERT-HME1"}, "[2]": {"tested_on": "DLD-1 colorectal cancer cells and derivative clones (DKO-1, DKO-3, DKO-4, PIK3CA WT/mutant)", "assay": "Viability (ATP assay) of DLD-1 cells and isogenic KRAS / PIK3CA derivative clones", "description": "(§1) Results are expressed as percent of viability compared to cells treated with DMSO only ('control') and represent mean±SD of at least three independent observations.\n(§2) After serial dilutions, 100 μl of drugs in serum free medium were added to cells with a multichannel pipette. Vehicle and medium-only containing wells were added as controls. Plates were incubated at 37° C. in 5% CO2 for 96 h, after which cell viability was assessed by ATP content using the CellTiter-Glo® Luminescent Assay (Promega Madison, Wis.)."}, "[3]": {"tested_on": "HCT 116 colorectal cancer cells and derivative clones (HKh-2, HKe-3, HK2-6, PIK3CA WT/mutant)", "assay": "Viability (ATP assay) of HCT 116 cells and isogenic KRAS / PIK3CA derivative clones", "description": "as §1, §2"}, "[4]": {"tested_on": "phosphorylation of p70S6K, RpS6, AKT and MAPK in HCT 116 and KRAS WT/- HKe-3 cells", "assay": "Biochemical effects of everolimus: immunoblot and ELISA of phospho-proteins", "assay_type": "cell-based, human", "conditions": "everolimus 500 nM, 30 minutes", "protocol": "(A, D) After 30 minutes'treatment with everolimus 500 nM, HCT 116 parental cells and its derivative KRAS WT/-HKe-3 clone were lysed and immunoblotted with the anti-phospho-P70S6K, totalP70S6K, phospho-MAPK and total MAPK (B, C, E) The same lysates were used also for ELISA measurements of total AKT, phosphoAKT (Thr308), phosphoAKT (Ser473), total RpS6 and phosphoRpS6 levels. Numbers indicate the ratio of phosphorylated protein related to total protein levels and are normalized respect to the untreated (NT) HCT 116 cells.\nSDS PAGE was performed using Invitrogen Precasted gels (Invitrogen Carlsbad, Calif.); western blotting transfer onto Hybond-C Extra membranes (Amersham, Amersham Biosciences, Uppsala, Sweden) was done following standard methods. The primary antibodies used for immunoblotting were: Anti-AKT (Cell Signaling, Technology, Danvers, Mass.); Anti-phospho-AKT S473 (Cell Signaling, Technology, Danvers, Mass.); Anti-Actin and Anti-Vinculin (Sigma-Aldrich, St. Louis, Mo.); Phospho-p44/42 Map kinase (Thr202/Tyr204) (Cell Signaling, Technology, Danvers, Mass.); Anti-phospho-EGFR Receptor (Tyr 1068) and Anti EGFR Receptor (Cell Signaling Technology, Danvers, Mass.)."}, "[5]": {"tested_on": "panel of cell lines derived from glioblastoma, breast, ovarian, prostate, endometrial and colorectal carcinomas carrying genetic alterations in PIK3CA or PTEN", "assay": "Antiproliferative effects of everolimus on a panel of cancer cell lines", "assay_type": "cell-based, human", "conditions": "FIG. 7A", "source_text": "The present pharmacogenomic analysis of non-transformed cells carrying cancer alleles point to a relationship between the occurrence of PIK3CA mutations and sensitivity to everolimus. The present inventors next assessed whether and to what extent these findings might be applicable to human cancer cells in which mutations in the PIK3CA pathway naturally occur alongside with additional genetic alterations. To this end a panel of cell lines derived from glioblastoma, breast, ovarian, prostate, endometrial and colorectal carcinomas which are known to carry genetic alterations in PIK3CA or PTEN (FIG. 7) were treated with everolimus. […] Everolimus-resistant cells (such as HT-29, HCT 116 and DLD-1) carried mutations in both PIK3CA and KRAS/BRAF."}}, "data": [{"smiles": "CO[C@H]1C[C@@H]2CC[C@@H](C)[C@@](O)(O2)C(=O)C(=O)N2CCCC[C@H]2C(=O)O[C@H]([C@H](C)C[C@@H]2CC[C@@H](OCCO)[C@H](OC)C2)CC(=O)[C@H](C)/C=C(\\C)[C@@H](O)[C@@H](OC)C(=O)[C@H](C)C[C@H](C)/C=C/C=C/C=C/1C", "note": "[everolimus, Everolimus]", "values": [{"measurement": "pharmarray: differential response of PIK3CA mutated cells versus WT", "setting": "[1]; FIG. 5G", "value": "affecting preferentially"}, {"measurement": "antiproliferative effect on PIK3CA KI clones versus WT", "setting": "[1]; wide range of concentrations, FIG. 6A", "value": "significant antiproliferative effect only in mutated cells"}, {"measurement": "response of DLD-1 clones knock-out for the mutated KRAS D13 allele versus parental / DKO-1", "setting": "[2]; DKO-3 and DKO-4, FIG. 7C", "value": "more sensitive to everolimus"}, {"measurement": "response of DLD-1 cells knock-out for the mutated PIK3CA K545 allele", "setting": "[2]; FIG. 14B", "value": "as sensitive to everolimus as either the corresponding parental cells or a clone retaining only the PIK3CA mutated allele"}, {"measurement": "response of HCT 116 parental and isogenic cells carrying mutated KRAS", "setting": "[3]; FIG. 7B", "value": "equally resistant"}, {"measurement": "response of HCT 116 derivative cells retaining only the KRAS WT allele", "setting": "[3]; HKh-2 and HKe-3, FIG. 7B", "value": "sensitive to everolimus"}, {"measurement": "response of HCT 116 cells in which PIK3CA H1047R had been deleted", "setting": "[3]; all clones retain mutated KRAS, FIG. 14A", "value": "non-responsive to everolimus"}, {"measurement": "MAPK phosphorylation in drug treated HKe-3 cells compared to parental", "setting": "[4]; FIG. 15A", "value": "higher level of MAPK phosphorylation"}, {"measurement": "levels of activated RpS6", "setting": "[4]; FIG. 15E", "value": "decreased accordingly"}, {"measurement": "phosphorylation of p70S6K", "setting": "[4]; parental and KRAS D13 deleted cells, FIG. 15D", "value": "abrogated"}, {"measurement": "response of tumor cells with PIK3CA pathway alterations but no mutation in KRAS/BRAF", "setting": "[5]", "value": "sensitive"}, {"measurement": "response of tumor cells carrying mutations in both PIK3CA and KRAS/BRAF", "setting": "[5]; such as HT-29, HCT 116 and DLD-1", "value": "resistant"}]}]}
